Columns and labels:
Format in all cases: cell-based
Leptosphaeria nodorum = assay: Antifungal activity test (PDA plate, hypha extension inhibition); conditions: 0.8 ppm in PDA culture medium
Method: (§1) (Antifungal Activity Test against Various Pathogenic Fungi) For each of the compounds I-1 to 27 of the present invention and the comparative compounds (a) to (d), (m-1) and (m-3), 20 mg was weighed and dissolved in 2 ml of dimethylsulfoxide, and a double dilution row in 10 steps was prepared by further using dimethylsulfoxide. A 0.6 ml portion of these solutions was each added to 60 ml of a PDA culture medium (potato-dextrose-agar culture medium) at about 60° C., they were well mixed in a 100 ml Erlenmeyer flask, the solution was poured into a schale and was solidified, the plate culture media containing the compounds according to the present invention with final concentrations of 100, 50.0, 25.0, 12.5, 6.3, 3.2, 1.6, 0.8, 0.4 and 0.2 mg/l were prepared. On the other hand, the specimen bacteria cultured on the plate culture media beforehand was punched by a 4 mm diameter cork borer, and was inoculated on the plate culture media containing the aforementioned chemicals. After the inoculation, the bacteria were cultured at the optimum growth temperature of each bacterium for 1 to 7 days (for this optimum growth temperature, LIST OF CULTURES 1996 Microorganisms 10th edition published by Fermentation Research Institute (Foundation) can be referred to.), and the growth of the bacteria was measured by the diameter of a colony. […] R=100(dc−dt)/dc (Equation 3) [wherein each symbol is shown as follows: R=Hypha extension inhibition rate (%), dc=Diameter of colony on no-treated plate, dt=Diameter of colony on chemical-treated plate.] The results obtained above was evaluated in 5 steps in accordance with the following examination scale. <Growth Inhibition> 5: Hypha extension inhibition rate of 90% or more 4: Hypha extension inhibition rate of from 70% to less than 90% 3: […] 2: […] In addition, the abbreviations in Table 10 are as follows: L.n: Leptosphaeria nodorum

Botrytis cinerea = assay: as above; conditions: 1.6 ppm in PDA culture medium
Method: as §1, with “B.c: Botrytis cinerea” for “L.n: Leptosphaeria nodorum”

Pyricularia oryzae = conditions: 12.5 ppm in PDA culture medium
Venturia inaequalis = assay: Antifungal activity test (PDA plate, hypha extension inhibition); conditions: 3.2 ppm in PDA culture medium
Method: (Antifungal Activity Test against Various Pathogenic Fungi) For each of the compounds I-1 to 27 of the present invention and the comparative compounds (a) to (d), (m-1) and (m-3), 20 mg was weighed and dissolved in 2 ml of dimethylsulfoxide, and a double dilution row in 10 steps was prepared by further using dimethylsulfoxide. A 0.6 ml portion of these solutions was each added to 60 ml of a PDA culture medium (potato-dextrose-agar culture medium) at about 60° C., they were well mixed in a 100 ml Erlenmeyer flask, the solution was poured into a schale and was solidified, the plate culture media containing the compounds according to the present invention with final concentrations of 100, 50.0, 25.0, 12.5, 6.3, 3.2, 1.6, 0.8, 0.4 and 0.2 mg/l were prepared. On the other hand, the specimen bacteria cultured on the plate culture media beforehand was punched by a 4 mm diameter cork borer, and was inoculated on the plate culture media containing the aforementioned chemicals. After the inoculation, the bacteria were cultured at the optimum growth temperature of each bacterium for 1 to 7 days (for this optimum growth temperature, LIST OF CULTURES 1996 Microorganisms 10th edition published by Fermentation Research Institute (Foundation) can be referred to.), and the growth of the bacteria was measured by the diameter of a colony. […]

With `CC(Cc1ccc(C(F)(F)F)c(F)c1F)CN(C)Cc1ccc(Cl)nc1` (centres unmarked) [Compound I-10] the “Growth Inhibition L.n (0.8)” value (Leptosphaeria nodorum) was 4 (Hypha extension inhibition rate of from 70% to less than 90%), the “Growth Inhibition B.c (1.6)” value (Botrytis cinerea) was 5 (Hypha extension inhibition rate of 90% or more) and the “Growth Inhibition P.o (12.5)” value (Pyricularia oryzae) was 4 (Hypha extension inhibition rate of from 70% to less than 90%). The “Growth Inhibition V.i (3.2)” value (Venturia inaequalis) was 4 (Hypha extension inhibition rate of from 70% to less than 90%).
With `CC(Cc1ccc2c(c1)OC(F)(F)O2)CN(C)Cc1ccc(Cl)nc1` (centres unmarked) [Compound I-24] the “Growth Inhibition L.n (0.8)” value (Leptosphaeria nodorum) was 5 (Hypha extension inhibition rate of 90% or more), the “Growth Inhibition B.c (1.6)” value (Botrytis cinerea) was 4 (Hypha extension inhibition rate of from 70% to less than 90%) and the “Growth Inhibition P.o (12.5)” value (Pyricularia oryzae) was 4 (Hypha extension inhibition rate of from 70% to less than 90%). The “Growth Inhibition V.i (3.2)” value (Venturia inaequalis) was 4 (Hypha extension inhibition rate of from 70% to less than 90%).
